US8846601B2, “Melanocortin receptor-specific peptides” (Palatin Technologies, Inc., priority 2009, dated 2014)
Where two headings read alike, the source gives them in different places. Peptide text beside a SMILES is read from it.

Assays:
[1] = tested on: Male Sprague-Dawley rats; experiment: Rat feeding studies: food intake and body weight change; format: in vivo; conditions: for decrease in food consumption compared to control: rats, 0-2, 0-4 and 0-20 hour periods
Method: Change in food intake and body weight was evaluated for selected peptides administered by intravenous (IV) or subcutaneous injection routes. Male Sprague-Dawley rats were obtained from Hilltop Lab Animals, Inc. (Scottsdale, Pa.) or other vendors. Animals were individually housed in conventional polystyrene hanging cages and maintained on a controlled 12 hour on/off light cycle. Water and pelleted food was provided ad libitum. The rats were dosed IV with vehicle or selected peptides (0.3 to 1.0 mg/kg), or dosed subcutaneously with vehicle or selected peptides (doses up to 30 mg/kg). […] The changes in body weight and food intake for the 48 hour and 72 hour periods after dosing can also be measured to determine reversal of changes in body weight and food intake effects back to baseline levels.

[2] = target: T1, hMC4-R (Homo sapiens (Human), UniProt P32245); experiment: Assay for agonist activity: cAMP accumulation in HEK-293 cells that express hMC4-R; conditions: for functional status at MC4-R (agonist / partial agonist): agonist = intrinsic activity 70% or higher, partial agonist 10-70%
Method: By “intrinsic activity” is meant the maximal functional activity achievable by a compound in a specified melanocortin receptor expressing cell system, such as the maximal stimulation of adenylyl cyclase.
Accumulation of intracellular cAMP was examined as a measure of the ability of the peptides of the present invention to elicit a functional response in HEK-293 cells that express MC4-R. Confluent HEK-293 cells that express recombinant hMC4-R were detached from culture plates by incubation in enzyme-free cell dissociation buffer. Dispersed cells were suspended in Earle's Balanced Salt Solution containing 10 mM HEPES (pH 7.5), 1 mM MgCl2, 1 mM glutamine, 0.5% albumin and 0.3 mM 3-isobutyl-1-methyl-xanthine (IBMX), a phosphodiesterase inhibitor. […] Cells were exposed for 15 minutes at 37° C. to peptides of the present invention dissolved in DMSO (final DMSO concentration of 1%) at a concentration range of 0.05-5000 nM in a total assay volume of 200 μL. […] Data analysis was performed by nonlinear regression analysis with Graph-Pad Prism® software. The maximum efficacies of the test peptides of the present invention were compared to that achieved by the reference melanocortin agonist NDP-αMSH.

[3] = tested on: Male Sprague-Dawley rats; experiment: Induction of penile erection in male rats; format: in vivo, rat; conditions: for induction of penile erection: male Sprague-Dawley rats, 60 minute observation, No. 154 as trifluoracetic acid salt, No. 155 as acetate salt
Description: Each dose group contained six or seven animals, with video observation for sixty minutes following administration.

[4] = target: T2, MC1-R (B-16 mouse melanoma cells) (Mus musculus (Mouse), UniProt Q01727); experiment: Competitive binding using Eu-labeled NDP-α-MSH, MC1-R
Method: A competitive inhibition binding assay is performed using membrane homogenates prepared from HEK-293 cells that express recombinant hMC4-R, hMC3-R, or hMC5-R, and from B-16 mouse melanoma cells (containing endogenous MC1-R). In some instances, HEK-293 cells that express recombinant hMC1-R were employed. In the examples that follow, all MC3-R, MC4-R and MC5-R values are for human recombinant receptors. MC1-R values are for B-16 mouse melanoma cells, unless the heading is “hMC1-R”, in which case the value is for human recombinant MC1-R. Assays were performed in 96 well GF/B Millipore multiscreen filtration plates (MAFB NOB10) pre-coated with 0.5% bovine serum albumin (Fraction V). Membrane homogenates were incubated with 0.2 nM (for hMC4-R) 0.4 nM (for MC3-R and MC5-R) or 0.1 nM (for mouse B16 MC1-R or hMC1-R) [I^125]-NDP-α-MSH (Perkin Elmer) and increasing concentrations of test peptides of the present invention in buffer containing 25 mM HEPES buffer (pH 7.5) with 100 mM NaCl, 2 mM CaCl2, 2 mM MgCl2, 0.3 mM 1,10-phenanthroline, and 0.2% bovine serum albumin. After incubation for 60 minutes at 37° C., the assay mixture was filtered and the membranes washed three times with ice-cold buffer. Filters were dried and counted in a gamma counter for bound radioactivity. […] Maximal specific binding (100%) was defined as the difference in radioactivity (cpm) bound to cell membranes in the absence and presence of 1 μM NDP-α-MSH. […] Ki values for test peptides of the present invention were determined using Graph-Pad Prism® curve-fitting software.
Alternatively, a competitive inhibition binding assay was performed employing Eu-NDP-α-MSH (PerkinElmer Life Sciences catalog No. AD0225) with determination by time-resolved fluorometry (TRF) of the lanthanide chelate. […] The plates were incubated on a shaker for 15 minutes and read at 340 nm excitation and 615 nm emission wavelengths. […] Ki values were determined by curve-fitting with Graph-Pad Prism® software using a one-site fixed-slope competition binding model.

[5] = target: T3, hMC3-R (Homo sapiens (Human), UniProt P41968); experiment: Competitive binding using Eu-labeled NDP-α-MSH, MC3-R
Method: (§1) A competitive inhibition binding assay is performed using membrane homogenates prepared from HEK-293 cells that express recombinant hMC4-R, hMC3-R, or hMC5-R, and from B-16 mouse melanoma cells (containing endogenous MC1-R). In some instances, HEK-293 cells that express recombinant hMC1-R were employed. In the examples that follow, all MC3-R, MC4-R and MC5-R values are for human recombinant receptors. MC1-R values are for B-16 mouse melanoma cells, unless the heading is “hMC1-R”, in which case the value is for human recombinant MC1-R. Assays were performed in 96 well GF/B Millipore multiscreen filtration plates (MAFB NOB10) pre-coated with 0.5% bovine serum albumin (Fraction V). […] Filters were dried and counted in a gamma counter for bound radioactivity. […] Maximal specific binding (100%) was defined as the difference in radioactivity (cpm) bound to cell membranes in the absence and presence of 1 μM NDP-α-MSH. […] Ki values for test peptides of the present invention were determined using Graph-Pad Prism® curve-fitting software.
Alternatively, a competitive inhibition binding assay was performed employing Eu-NDP-α-MSH (PerkinElmer Life Sciences catalog No. AD0225) with determination by time-resolved fluorometry (TRF) of the lanthanide chelate. […] The plates were incubated on a shaker for 15 minutes and read at 340 nm excitation and 615 nm emission wavelengths. […]

[6] = target: T2, MC1-R (B-16 mouse melanoma cells); experiment: Competitive inhibition binding assay using [I125]-NDP-α-MSH, MC1-R
Method: as §1

[7] = target: T3, hMC3-R; experiment: Competitive inhibition binding assay using [I125]-NDP-α-MSH, MC3-R
Method: (§2) A competitive inhibition binding assay is performed using membrane homogenates prepared from HEK-293 cells that express recombinant hMC4-R, hMC3-R, or hMC5-R, and from B-16 mouse melanoma cells (containing endogenous MC1-R). In some instances, HEK-293 cells that express recombinant hMC1-R were employed. In the examples that follow, all MC3-R, MC4-R and MC5-R values are for human recombinant receptors. […] Membrane homogenates were incubated with 0.2 nM (for hMC4-R) 0.4 nM (for MC3-R and MC5-R) or 0.1 nM (for mouse B16 MC1-R or hMC1-R) [I^125]-NDP-α-MSH (Perkin Elmer) and increasing concentrations of test peptides of the present invention in buffer containing 25 mM HEPES buffer (pH 7.5) with 100 mM NaCl, 2 mM CaCl2, 2 mM MgCl2, 0.3 mM 1,10-phenanthroline, and 0.2% bovine serum albumin. After incubation for 60 minutes at 37° C., the assay mixture was filtered and the membranes washed three times with ice-cold buffer. Filters were dried and counted in a gamma counter for bound radioactivity. […] Maximal specific binding (100%) was defined as the difference in radioactivity (cpm) bound to cell membranes in the absence and presence of 1 μM NDP-α-MSH. […] Each assay was conducted in triplicate and the actual mean values are described, with results less than 0% reported as 0%. Ki values for test peptides of the present invention were determined using Graph-Pad Prism® curve-fitting software.

[8] = Pharmacokinetic studies, rat model, subcutaneous injection; conditions: in vivo, sc, formulation as in Section 9.7, read-out: circulation half life (converted)
[9] = target: T4, hMC1-R (Homo sapiens (Human), UniProt Q01726); experiment: Competitive inhibition binding assay, human recombinant MC1-R
Method: as §2

[10] = target: T4, hMC1-R; experiment: Functional assay (EC50 and intrinsic activity) at hMC1-R; format: cell-based
[11] = target: T1, hMC4-R; experiment: Competitive inhibition binding assay using [I125]-NDP-α-MSH, hMC4-R membranes
Summary of the method: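 Membranes from HEK-293 cells expressing recombinant hMC1-R or hMC4-R incubated with 0.1 nM (MC1-R) or 0.2 nM (MC4-R) [I125]-NDP-α-MSH and increasing peptide concentrations in HEPES pH 7.5, 60 min at 37 °C; filtered, gamma counted.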

T4 sequence (Q01726 whole entry): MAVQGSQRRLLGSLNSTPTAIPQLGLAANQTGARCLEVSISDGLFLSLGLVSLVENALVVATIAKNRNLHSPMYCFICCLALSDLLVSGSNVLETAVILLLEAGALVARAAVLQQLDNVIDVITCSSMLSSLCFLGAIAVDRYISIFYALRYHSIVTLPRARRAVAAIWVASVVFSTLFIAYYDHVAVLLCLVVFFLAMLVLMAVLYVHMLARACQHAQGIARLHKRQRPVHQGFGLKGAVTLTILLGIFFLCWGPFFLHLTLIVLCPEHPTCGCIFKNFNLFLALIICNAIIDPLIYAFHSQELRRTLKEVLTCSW
T1 sequence (P32245 whole entry): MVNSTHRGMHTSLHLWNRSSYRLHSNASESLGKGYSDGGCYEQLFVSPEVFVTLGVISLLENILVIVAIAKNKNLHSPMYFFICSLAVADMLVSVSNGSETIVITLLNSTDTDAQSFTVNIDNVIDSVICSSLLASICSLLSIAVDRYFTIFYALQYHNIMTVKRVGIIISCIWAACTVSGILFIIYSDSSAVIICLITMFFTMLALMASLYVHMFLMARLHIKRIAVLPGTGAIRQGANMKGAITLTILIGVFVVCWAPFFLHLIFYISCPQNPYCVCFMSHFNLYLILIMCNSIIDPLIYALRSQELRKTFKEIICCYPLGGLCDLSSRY
T2 sequence (Q01727 whole entry): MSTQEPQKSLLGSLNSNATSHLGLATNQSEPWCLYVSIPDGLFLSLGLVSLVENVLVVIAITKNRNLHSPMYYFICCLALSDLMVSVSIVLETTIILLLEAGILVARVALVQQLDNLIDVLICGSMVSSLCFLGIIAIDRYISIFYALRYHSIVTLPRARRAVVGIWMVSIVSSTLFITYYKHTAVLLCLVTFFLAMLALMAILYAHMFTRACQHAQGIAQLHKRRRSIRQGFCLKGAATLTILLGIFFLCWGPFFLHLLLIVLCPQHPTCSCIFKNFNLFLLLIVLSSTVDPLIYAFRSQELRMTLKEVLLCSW
T3 sequence (P41968 whole entry): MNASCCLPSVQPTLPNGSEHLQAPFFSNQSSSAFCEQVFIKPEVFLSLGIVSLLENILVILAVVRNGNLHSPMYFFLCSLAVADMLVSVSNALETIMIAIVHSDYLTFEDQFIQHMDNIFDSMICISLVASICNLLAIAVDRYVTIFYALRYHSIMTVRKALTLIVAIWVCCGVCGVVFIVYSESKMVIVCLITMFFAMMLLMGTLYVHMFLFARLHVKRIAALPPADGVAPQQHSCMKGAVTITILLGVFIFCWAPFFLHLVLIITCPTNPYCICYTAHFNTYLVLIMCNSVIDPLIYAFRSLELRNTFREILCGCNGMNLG

Ki [5]	half-life [8]	Ki [9]	EC50 [10]	EC50 [2]	Ki ([11]; averaged, [I125]-NDP-α-MSH (values not marked *), read-out: MC4-R Ki)	Ki ([11]; read-out: hMC4-R (Ki))	SMILES	food intake and rate of change in body weight ([1]; rat feeding studies, bremelanotide as positive control)	decrease in food consumption compared to control ([1]; 0.3 mg/kg)	decrease in food consumption compared to control ([1]; 1 mg/kg)	functional status at MC4-R (agonist / partial agonist) [2]	observed spontaneous erections compared to vehicle ([3]; rats, IV, doses of 0.3 or 1 mg/kg)	Ki [4]	Ki [6]	Ki [7]	observed spontaneous erections ([3]; rats, subcutaneous, doses of 1, 3 or 10 mg/kg)	induction of penile erection ([3]; subcutaneous)
103 nM							CC(=O)N[C@@H](CCCNC(=N)N)C(=O)N[C@H]1CC(=O)NCCCC[C@@H](C(N)=O)NC(=O)[C@H](Cc2c[nH]c3ccccc23)NC(=O)[C@H](CCCNC(=N)N)NC(=O)[C@@H](Cc2ccccc2)NC(=O)[C@H](Cc2c[nH]cn2)NC1=O [Peptide No. 1, Ac-Arg-cyclo(Asp-His- D-Phe-Arg-Trp-Lys)- NH2]	reduce food intake and decrease the rate of change in body weight	statistically significant	statistically significant	agonist	statistically significant increase	4 nM	3 nM			
							CC(=O)N[C@@H](CCCNC(=N)N)C(=O)N[C@H]1CC(=O)NCCCC[C@@H](C(N)=O)NC(=O)[C@H](Cc2c[nH]c3ccccc23)NC(=O)[C@H](CCCNC(=N)N)NC(=O)[C@@H](Cc2ccccc2)NC(=O)[C@H](CCC(N)=O)NC1=O [Peptide No. 32, Ac-Arg-cyclo(Asp-Gln- D-Phe-Arg-Trp-Lys)- NH2]				agonist		673 nM	133 nM	340 nM	increase in observed spontaneous erections	
	~42 min	688 nM	25 nM				CC(=O)N[C@@H](CCCNC(=N)N)C(=O)N[C@H]1CCCNC(=O)CC[C@@H](C(N)=O)NC(=O)[C@H](Cc2c[nH]c3ccccc23)NC(=O)[C@H](CCCNC(=N)N)NC(=O)[C@@H](Cc2ccccc2)NC(=O)[C@H](CC(N)=O)NC1=O [compound 154, Ac-Arg-cyclo(Orn-Asn- D-Phe-Arg-Trp-Glu)- NH2]										robustly induce a penile erection
	~42 min	240 nM	14 nM	0.189 nM	5 nM	5 nM	CC(=O)N[C@@H](CCCNC(=N)N)C(=O)N[C@H]1CCCCNC(=O)C[C@@H](C(N)=O)NC(=O)[C@H](Cc2c[nH]c3ccccc23)NC(=O)[C@H](CCCNC(=N)N)NC(=O)[C@@H](Cc2ccccc2)NC(=O)[C@H](CC(N)=O)NC1=O [compound 155, Ac-Arg-cyclo(Lys-Asn- D-Phe-Arg-Trp-Asp)- NH2] (HELM PEPTIDE1{[ac].R.K.N.[dF].R.W.D.[am]}$PEPTIDE1,PEPTIDE1,3:R3-8:R3$$$V2.0)										robustly induce a penile erection
